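96-well plates; 48 h exposure; 5 concentrations. Endpoints by linear interpolation between flanking doses. Not reached: highest tested concentration assigned. GI50 marks 50% less growth. TGI: total growth inhibition.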
Columns and labels:
Assay in all cases: DTP human tumour cell line panel, 48 h
SF-539 CNS = tested on: SF-539 CNS
CAKI-1 renal = tested on: CAKI-1 renal
PC-3 prostate = tested on: PC-3 prostate
K-562 leukemia = tested on: K-562 leukemia
OVCAR-4 ovarian = tested on: OVCAR-4 ovarian
HCT-116 colon = tested on: HCT-116 colon
TK-10 renal = tested on: TK-10 renal
UO-31 renal = tested on: UO-31 renal
HT29 colon = tested on: HT29 colon
EKVX NSCLC = tested on: EKVX NSCLC

SMILES	GI50 (SF-539 CNS) [µM]	TGI (SF-539 CNS) [µM]	GI50 (CAKI-1 renal) [µM]	TGI (CAKI-1 renal) [µM]	GI50 (PC-3 prostate) [µM]	TGI (PC-3 prostate) [µM]	GI50 (K-562 leukemia) [µM]	TGI (K-562 leukemia) [µM]	GI50 (OVCAR-4 ovarian) [µM]	TGI (OVCAR-4 ovarian) [µM]	GI50 (HCT-116 colon) [µM]	TGI (HCT-116 colon) [µM]	GI50 (TK-10 renal) [µM]	TGI (TK-10 renal) [µM]	GI50 (UO-31 renal) [µM]	GI50 (HT29 colon) [µM]	TGI (HT29 colon) [µM]	GI50 (EKVX NSCLC) [µM]	TGI (EKVX NSCLC) [µM]	TGI (UO-31 renal) [µM]
O=C1c2ccccc2-c2c1c1ccccc1c(=O)n2CCNCCNCCn1c2c(c3ccccc3c1=O)C(=O)c1ccccc1-2	0.542	12.3	0.527	18.4	0.701	19.3	0.33	> 100	1.43	14.9	0.0159	1.42	1.06	4.11	0.519	0.017	> 100	10.6	27.2	
Cc1cc(S(=O)(=O)Nc2nnc(-c3ccccc3)c(-c3ccccc3)n2)c(SCc2ccccc2)cc1Cl	19.9	38.6	25.5	42.5	21.2	58	29.6	> 100	19.9	37.2	19.8	38.9	17.6	36.1	26	22.4	51.7	5.68	25.2	73.5
COC(=O)Nc1nc2ccccc2c(=O)[nH]1		> 100		> 100		> 100		> 100		> 100		> 100		> 100			> 100		> 100	> 100
Cn1c(=O)c2[nH]c(CS(=O)(=O)Cc3nc4c([nH]3)c(=O)n(C)c(=O)n4C)nc2n(C)c1=O		> 100		> 100		> 100		> 100		> 100		> 100		> 100			> 100		> 100	> 100
CC1(C)OCC(CO)(Nc2nc(N3CC3)nc(N3CC3)n2)CO1		27		13.8		> 100		> 100		41.9		27.5		67.5			53.7		90.8	23.1
Cc1ccc2c(=O)c3cccc(CC(=O)O)c3oc2c1C	> 100	> 100	> 100	> 100	> 100	> 100	> 100	> 100	> 100	> 100	> 100	> 100	> 100	> 100	> 100	> 100	> 100	> 100	> 100	> 100
CCOC(=O)Oc1c(OC)cc(C(=O)O[C@@H]2C[C@@H]3CN4CCc5c([nH]c6cc(OC)ccc56)[C@H]4C[C@@H]3[C@H](C(=O)OC)[C@H]2OC)cc1OC	4.18	14.8	13.9	48.1	4.92	33.8	3.5	35.7	4.72	19.8	1.73	3.58	14.7	42.5	5.18	2.32	5.92	5.78	35.9	> 100
O=c1cc(-c2ccccc2)nc2n1CCN2Cc1ccccc1	27.8	73.5	29.7	> 100	32.3	> 100	34.7	90.3	74.4	> 100	31.6	> 100	26.5	95.7	21.3	58.1	> 100	30.5	96.1	74.7
CN(C)c1ccc2c3c(c(=O)oc2c1)CCC3		> 100		> 100		> 100		> 100		> 100		> 100		> 100			> 100		> 100	> 100
Nc1ccccc1C#C/C=C\C#Cc1ccc(Cl)cc1Cl	12.3	28.9	3.38	13.5	9.04	42.1	4.84	> 100	28.5	> 100	12	24.9	11.6	26.8	14.2	15.1	> 100	18.8	47.9	40
O=C(NC(=S)Nc1ccc(Cl)cc1)c1ccccc1	> 90.7	> 100	> 79.7	> 100	> 100	> 100	> 100	> 100	> 46.5	> 100	> 100	> 100	> 100	> 100	99	> 100	> 100	> 100	> 100	> 100
N=C(N)CCCCCCCCC(=N)N	35.4	> 100	7.37	> 100	37	> 100	19.7	> 100	44.4	> 100	22.8	> 100	32.2	> 100	18.2	26.3	> 100	9.51	> 100	> 100
CCOC(CN=c1nc(N(C)C)ss1)OCC		31.4		41.3		32		11.8		33.1		31.2		73.5			17.5		> 80	63.3
C[C@]12CCC(=O)C(O)=C1CC[C@@H]1[C@@H]2CC[C@]2(C)C(=O)CC[C@@H]12		> 100		> 100		> 100		> 100		> 100		> 100		> 100			> 100		> 100	> 100
CCN(CC)CCOc1ccc(/C=C2\CC3C4CC=C5C[C@@H](N6CCCC6)CC[C@]5(C)C4CC[C@]3(C)[C@H]2O)cc1OC (some centres undefined)	1.91	3.93	16.3	46.1	4.66	45.3	4.49	> 100	24	> 82.3	1.38	11	9.64	37.2	4.29	2.39	> 100	12.9	> 77.4	16.9
